Assay results from ChEMBL document CHEMBL1201862, “PubChem BioAssay data set” (2004).
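Briefly, cells in 96-well plates were exposed to five compound concentrations for 48 h, and endpoints were estimated by linear interpolation. Here, GI50 denotes the concentration required for 50% inhibition of growth.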 Calls of active or inactive are those of the source. No stated cut-off is given here; in the data, active = GI50 up to about 1.1 µM and inactive = higher.

How the values were obtained:
Test in all cases: NCI-60 cell line screen, 48 h
MOLT-4 = test system: MOLT-4
NCI-H23 = test system: NCI-H23
HCC 2998 = test system: HCC 2998
MDA-MB-231 = test system: MDA-MB-231
SN12C = test system: SN12C
UACC-257 = test system: UACC-257
M14 = test system: M14
NCI-H460 = test system: NCI-H460
MCF7 = test system: MCF7
UACC-62 = test system: UACC-62
UO-31 = test system: UO-31
RXF 393 = test system: RXF 393
SNB-19 = test system: SNB-19
HCT-15 = test system: HCT-15
A498 = test system: A498
SF-268 = test system: SF-268
NCI-H226 = test system: NCI-H226
RPMI-8226 = test system: RPMI-8226
MDA-N = test system: MDA-N
SR = test system: SR

Structure (SMILES)	GI50 (MOLT-4)	GI50 (NCI-H23)	GI50 (HCC 2998)	GI50 (MDA-MB-231)	GI50 (SN12C)	GI50 (UACC-257)	GI50 (M14)	GI50 (NCI-H460)	GI50 (MCF7)	GI50 (UACC-62)	GI50 (UO-31)	GI50 (RXF 393)	GI50 (SNB-19)	GI50 (HCT-15) [µM]	GI50 (A498)	GI50 (SF-268)	GI50 (NCI-H226)	GI50 (RPMI-8226)	GI50 (MDA-N)	GI50 (SR)
COc1ccc(/C=C/c2cnnc3ccccc23)cc1OC	> 10 µM (inactive)	> 10 µM (inactive)	> 10 µM (inactive)	> 10 µM (inactive)	> 10 µM (inactive)	> 10 µM (inactive)	> 10 µM (inactive)	> 10 µM (inactive)	> 10 µM (inactive)	> 10 µM (inactive)	0.0374 µM (active)	> 10 µM (inactive)	> 10 µM (inactive)	> 10	> 10 µM (inactive)	> 10 µM (inactive)	> 10 µM (inactive)	> 10 µM (inactive)	> 10 µM (inactive)	
C[N+](C)(C)CCC(=O)N1C/C(=C\c2ccccc2)C(=O)/C(=C/c2ccccc2)C1	2.45 µM (inactive)	10.4 µM (inactive)	3.47 µM (inactive)	3.22 µM (inactive)	2.08 µM (inactive)	12.2 µM (inactive)	2.72 µM (inactive)	7.87 µM (inactive)	1.45 µM (inactive)	3.58 µM (inactive)	18.9 µM (inactive)	11.8 µM (inactive)	5.38 µM (inactive)	2.47	20.7 µM (inactive)	5.14 µM (inactive)	10 µM (inactive)	0.385 µM (active)	1.9 µM (inactive)	
N#CCOc1cccc(C2(N3CC=CCC3)CCCCC2)c1	56.6 µM (inactive)	> 100 µM (inactive)		> 100 µM (inactive)	> 100 µM (inactive)	72.3 µM (inactive)	> 100 µM (inactive)		> 100 µM (inactive)	> 100 µM (inactive)	> 100 µM (inactive)		> 100 µM (inactive)	> 100	> 100 µM (inactive)	> 100 µM (inactive)	> 100 µM (inactive)	77.6 µM (inactive)	> 100 µM (inactive)	> 100 µM (inactive)
Clc1ccc(C(OCn2ccnc2)c2nc3ccccc3[nH]2)c(Cl)c1 (configuration not stated)	29.6 µM (inactive)	32.2 µM (inactive)	45.5 µM (inactive)	84.5 µM (inactive)	61.4 µM (inactive)	35.5 µM (inactive)	54.2 µM (inactive)	24.5 µM (inactive)	38.2 µM (inactive)	35 µM (inactive)	23.7 µM (inactive)		89.3 µM (inactive)	27.7	38.2 µM (inactive)	61.8 µM (inactive)		24.6 µM (inactive)	37.5 µM (inactive)	> 10 µM (inactive)
NCC(O)CNCC/C=C\C/C=C\C/C=C\C/C=C\C/C=C\C/C=C\CCCCC/C=C\CCNCC(O)CN (configuration not stated)	1.24 µM (inactive)			1.75 µM (inactive)	1.64 µM (inactive)	2.13 µM (inactive)	1.94 µM (inactive)	1.82 µM (inactive)	2.15 µM (inactive)	1.79 µM (inactive)	1.9 µM (inactive)		1.9 µM (inactive)	1.6	1.83 µM (inactive)	1.83 µM (inactive)	2.64 µM (inactive)	1.66 µM (inactive)	1.67 µM (inactive)	0.435 µM (active)
O=C1c2ccccc2C(=O)c2c(NCC3CO3)cccc21 (configuration not stated)	3.77 µM (inactive)	9.44 µM (inactive)	> 100 µM (inactive)	15.2 µM (inactive)	7.66 µM (inactive)	> 56.2 µM (inactive)	11.3 µM (inactive)	> 64.7 µM (inactive)	1.31 µM (inactive)	16 µM (inactive)	8.05 µM (inactive)	7.66 µM (inactive)	> 57.3 µM (inactive)	7.23	34.4 µM (inactive)	7.5 µM (inactive)	> 100 µM (inactive)	33.2 µM (inactive)	8.99 µM (inactive)	
CC(=O)OCC1OC(OCC2OC(N3C(=S)N[C@H]([C@@H](O)[C@H](O)[C@H](O)CO)[C@H]3O)C(OC(C)=O)C(OC(C)=O)C2OC(C)=O)C(OC(C)=O)C(OC(C)=O)C1OC(C)=O (some centres not stated)	> 100 µM (inactive)	> 100 µM (inactive)	> 100 µM (inactive)	> 100 µM (inactive)	> 100 µM (inactive)		> 100 µM (inactive)	> 100 µM (inactive)	> 100 µM (inactive)	> 100 µM (inactive)	> 100 µM (inactive)	> 100 µM (inactive)	> 100 µM (inactive)	> 100	> 100 µM (inactive)	> 100 µM (inactive)		79.8 µM (inactive)	> 100 µM (inactive)	> 100 µM (inactive)
